Source: publication PMC9629493, “Crystal structure of DNA polymerase I from Thermus phage G20c” (Acta Crystallographica. Section D, Structural Biology, 2022)

How the values were obtained:
[1] = target: T1, ExnV1 (uncultured virus, UniProt Z9YD31SC24); assay: X-ray crystal structure, […] A; assay type: binding; conditions: TMP and MgCl2 added before concentration; 5 mM TMP, 10 mM MgCl2 in cryo-solution; 100 mM Bicine pH 9.3; exonuclease active site
T1 construct: full 314-residue 3'-5' exonuclease domain protein, N-terminal His6 tag (pJOE5751.1, pLEI447.1), E. coli JM109, about 36 kDa, no oligomerization

[2] = target: T1, ExnV1; assay: differential scanning fluorimetry; assay type: binding; conditions: with MgCl2

Cc1cn([C@H]2C[C@H](O)[C@@H](COP(=O)(O)O)O2)c(=O)[nH]c1=O [thymidine monophosphate]
X-ray crystal structure, 2.19 A [1]: the second O atom of the phosphate group of the substrate nucleotide | thermal stabilization [2]: Differential scanning fluorimetry showed that ExnV1 was stabilized by thymidine monophosphate (TMP) and MgCl2
